The values that follow come from patent US20090162351A1, “Transdiscal administration of inhibitors of p38 MAP kinase” (DePuy Spine, Inc., priority 2007, published 2009).

In one data set the target is T1, COX2 (Homo sapiens, UniProt P35354).
T1 sequence (P35354 18-604): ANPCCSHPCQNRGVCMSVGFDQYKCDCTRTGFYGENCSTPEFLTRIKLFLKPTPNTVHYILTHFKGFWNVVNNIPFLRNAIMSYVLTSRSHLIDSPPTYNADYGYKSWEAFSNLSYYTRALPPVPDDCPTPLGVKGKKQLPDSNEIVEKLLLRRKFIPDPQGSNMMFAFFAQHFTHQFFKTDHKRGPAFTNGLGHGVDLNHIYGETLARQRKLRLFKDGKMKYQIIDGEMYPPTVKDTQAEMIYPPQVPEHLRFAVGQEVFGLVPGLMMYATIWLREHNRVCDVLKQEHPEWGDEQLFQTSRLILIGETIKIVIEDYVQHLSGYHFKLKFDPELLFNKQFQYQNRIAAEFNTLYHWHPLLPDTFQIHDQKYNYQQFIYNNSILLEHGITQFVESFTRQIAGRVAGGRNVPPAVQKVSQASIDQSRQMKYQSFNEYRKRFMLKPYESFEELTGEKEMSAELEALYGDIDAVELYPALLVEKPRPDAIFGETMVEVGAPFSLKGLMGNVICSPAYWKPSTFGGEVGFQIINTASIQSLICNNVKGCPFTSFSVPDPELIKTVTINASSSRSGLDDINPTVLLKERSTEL
Briefly: COX2 inhibition. The class given is biochemical. The following applies: read-out: inhibitor of COX2, IC50.

A further data set deals with p38α MAP kinase (h-p38α) (Homo sapiens, UniProt Q16539). In words: p38α MAP kinase inhibition (direct enzyme assay). The class given is biochemical. The conditions noted are these: read-out: inhibitor of p38a MAP kinase, IC50.
A short description of another data set: Water solubility. The class given is physicochemical.
Data set [1] relates to TNFα in human whole blood. Briefly: TNFα inhibition, human whole blood assay (h-WBA / HWB). The class given is cell-based.
Data set [2] deals with IL-1β-stimulated NO production in bovine chondrocyte pellets / ARC tissues. Briefly: Chondrocyte pellet / ARC culture model: total nitrite and nitrate assay. The class given is cell-based. The conditions noted are these: for effect on IL-1β-stimulated NO production (in words): chondrocyte pellet / ARC model. An excerpt:
Calf articular cartilage was obtained from the knee joints of eight to twelve month old animals and was processed within twenty-four hours after sacrifice. After removal of muscle and ligament, the cartilage was kept moist using phosphate buffer solution (PBS) to prevent tissue dehydration, and was aseptically peeled off from subchondral bone with a scalpel, and the cartilage pieces were further minced into smaller pieces (˜0.3-0.5×˜0.2-0.5 cm cubes). […] Chondrocytes were then enzymatically isolated from the tissue by incubation for overnight at 37° C. with gentle agitation in 0.2% collagenase in Dulbecco's modified eagle media (DMEM). After removal of tissue debris by filtration through cell strainer and the residual collagenase by 3× wash in PBS, cells were finally resuspended at a density of 2.5×10^6 cells/ml in chondrocyte medium. A 1 ml aliquot of the cell suspension was dispensed into either a 15 ml Falcon centrifuge tube or a 96 deep-well plate and centrifuged at 2000×g for five minutes. The chondrocyte pellets were incubated at 37° C. in a humidified atmosphere of 5% CO2 for two to three weeks with a medium change every other day.
As an alternative to using calf articular cartilage, a commercial Aliginate Recovered Chondrocytes (ARC) system was also used (Articular Engineering, LLC (Northbrook, Ill.)). Use of the commercial system cut down on labor and time in producing chondrocyte pellet. This system produced cartilaginous tissue in vitro using bovine chondrocytes. The first step consisted of culturing chondrocytes in alginate under conditions optimal for the formation of a cell-associated matrix (CM). The second step allowed these cells with their CM, after recovery, to rapidly form and become integrated into a solid mass of cartilage on a porous insert within two weeks.
Chondrocyte pellets were washed once with 1 ml of Chondrocyte Stimulation Medium and equilibrated in the same medium at room temperature for fifteen to thirty minutes. Compounds were dissolved in H2O, Ethanol or dimethyl sulfoxide (DMSO) (10^−2 M) according to suppliers' instructions and further diluted with Chondrocyte Stimulation Medium to the required concentrations. DMSO concentrations in the culture media should not exceed 1%; this concentration of DMSO has no effect on cartilage proteoglycan metabolism in response to cytokines.
The pellets were first treated with compounds at desired concentrations at 37° C. for one hour and then incubated for three to five days in the absence or presence of 10 ng/ml of IL-1β. At the end of the incubation, media and pellets were harvested and frozen for further analysis. Pellets were also fixed as needed in 4% (w/v) paraformaldehyde in PBS for histology analysis.
Nitrate/Nitrite levels were measured using the Griess reaction (Green L. C. et al., “Analysis of Nitrate, Nitrite, and [15N]nitrate in Biological Fluids,” Anal. Biochem. 126: 131-138 (1982)) with a Nitrate/Nitrite Colorimetric Assay Kit (Cayman Chemicals), the contents of which are incorporated herein by reference. The assay involved a simple two-step process. The first step involved conversion of nitrate in 50 μl of culture medium to nitrite utilizing nitrate reductase in a reaction volume of 100 μl at room temperature for two hours. The second step involved the addition of 50 μl of both Griess Reagent 1 and 2, which converted nitrite into a deep purple azo compound in ten minutes. Photometric measurement of the absorbance at 540 or 550 nm due to this azo chromophore accurately determined nitrite concentration. This assay kit cannot be used for RPMI (Roswell Park Memorial Institute) derived tissue culture medium due to interference with the colorimetric reaction.
To characterize the relative efficacies among different p38 MAP kinase inhibitors, dose-response curves were generated for both PGE2 and NO assays. […] After one hour of treatment, ARCs were stimulated with or without 7.5 ng/ml IL-1β and continued to incubate for five days before assay. […]

The target in a further data set is COX1 (Homo sapiens, UniProt P23219). Briefly: COX1 inhibition. The class given is biochemical. The conditions noted are these: read-out: inhibitor of COX1, IC50.
A further data set concerns chondrocytes. The class given is cell-based. As for the experimental part:
The LDH activity was determined calorimetrically in an enzymatic test based on the conversion of lactic acid to pyruvate in the presence of chromagenic substrate tetrazolium salt INT that was reduced to formazan.

Data set [3] concerns injured bovine cartilage explants.
Source text: Bovine articular cartilage was obtained from the knee joints of adult, eighteen to twenty-four month old animals and processed within twenty-four hours after sacrifice. […] Care was taken to consistently prepare the same thickness of bone layer. The cartilage-on-bone specimens were subjected to an impact. […] After each impact, the cartilage area with a visible indent of ˜0.5-1 mm in the center was punched out with a 3 mm diameter puncher and immediately soaked in PBS with 1× Antibiotic-Antimycotic. Throughout the impact procedure and preparation of specimens, the cartilage was kept moist using PBS to prevent tissue dehydration. The cartilage discs were sterilized through 3× one hour wash in PBS with 10× Antibiotic-Antimycotic followed by 1×0.5 hour wash in PBS with 1× Antibiotic-Antimycotic. After wash, the specimens were incubated with conditioned medium harvested from peripheral blood mononuclear cells (PBMC) stimulated with or without LPS and at the same time, were treated with or without compounds for five days at 37° C., 5% CO2. Culture medium was collected for GAG release, NO and PGE2 assays, and assessment for cytotoxicity.
Cell death was assessed by measuring the amount of lactate dehydrogenase (LDH) in the culture supernatant. 10-20 μl of culture medium was incubated with the reaction mixture from the Cytotoxicity Detection Kit (LDH, Roche), as described in Example III above. The amount of formazan formed was measured at 500 nm, which was proportional to the number of dead cells. Since no purified LDH was available for a standard curve at each measurement, an LDH level for 100% dead cells was measured in each experiment. The lysate for the dead cells was prepared as follows: Chondrocytes were enzymatically isolated as described earlier and about 0.1 million cells that were equivalent to the number of cells contained in a 3-mm punch of fresh cartilage explant were lysed in 1 ml of PBS with 1% Triton-100. Approximately 10-20 μl of the lysate was used in the assay as killed cell control. […]
Setting [4] is: chondrocyte pellet / ARC model, within the tested concentrations.
The mark [5] stands for this setting: Bos taurus, Chondrocyte, 120 h, bovine ARCs, 7.5 ng/ml IL-1β, five days, sigmoidal dose-response fit, read-out: NO, IC50.
The mark [6] stands for this setting: bovine ARCs, 7.5 ng/ml IL-1β, five days, sigmoidal dose-response fit, read-out: NO, IC50.

Each structure is given as a SMILES string. Several values for one entry are separate records, joined by “and”; a condition that tells them apart may be missing. Equal values may be shown once. Read-outs that look alike come from different tables or passages of the source.

p38α MAP kinase (h-p38α), sequence (Q16539 whole entry): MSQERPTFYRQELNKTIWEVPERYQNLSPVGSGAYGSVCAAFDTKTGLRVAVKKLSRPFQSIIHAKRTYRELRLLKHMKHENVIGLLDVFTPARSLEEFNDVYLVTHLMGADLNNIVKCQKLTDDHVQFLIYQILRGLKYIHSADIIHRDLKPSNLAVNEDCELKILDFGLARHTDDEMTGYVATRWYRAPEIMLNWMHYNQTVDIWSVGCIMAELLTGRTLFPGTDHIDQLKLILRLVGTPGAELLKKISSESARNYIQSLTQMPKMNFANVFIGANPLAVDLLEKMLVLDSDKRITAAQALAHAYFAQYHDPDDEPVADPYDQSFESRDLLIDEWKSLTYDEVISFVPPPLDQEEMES
COX1, sequence (P23219 24-599): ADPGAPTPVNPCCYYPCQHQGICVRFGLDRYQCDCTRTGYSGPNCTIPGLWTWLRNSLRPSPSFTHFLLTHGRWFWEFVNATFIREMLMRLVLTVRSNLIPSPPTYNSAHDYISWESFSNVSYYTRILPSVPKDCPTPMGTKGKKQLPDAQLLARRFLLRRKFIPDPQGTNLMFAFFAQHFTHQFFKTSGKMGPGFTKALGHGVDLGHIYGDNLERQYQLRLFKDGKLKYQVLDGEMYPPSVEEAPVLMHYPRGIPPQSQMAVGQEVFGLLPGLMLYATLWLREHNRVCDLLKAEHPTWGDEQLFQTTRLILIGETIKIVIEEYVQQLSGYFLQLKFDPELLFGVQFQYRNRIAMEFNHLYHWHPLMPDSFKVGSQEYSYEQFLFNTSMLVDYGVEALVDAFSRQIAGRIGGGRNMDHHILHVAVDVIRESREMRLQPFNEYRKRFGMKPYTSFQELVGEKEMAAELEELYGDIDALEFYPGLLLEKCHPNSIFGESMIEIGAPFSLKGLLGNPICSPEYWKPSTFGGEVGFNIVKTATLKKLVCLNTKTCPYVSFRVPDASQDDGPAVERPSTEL

By IC50 is commonly meant the concentration needed to halve the response being measured. One may read the solubility as the concentration that dissolves in the medium under given conditions. As usually defined, the inhibition is the relative decrease from the control value, in per cent. For `C[C@H](Nc1nccc(-c2c(-c3ccc(F)cc3)nc3nc(N)ccn23)n1)c1ccccc1` [JNJ 7583979 (RWJ 351958)], the IC50 at COX2 is over 10000 nM; at p38α MAP kinase (h-p38α), 1 nM; in data set [1] (Homo sapiens, read-out: inhibitor of TNF human whole blood (HWB), IC50), 5 nM; at COX1, over 10000 nM. Moreover, the “water solubility (in words)” value in “Water solubility” is “poor water solubility”. The solubility in “Water solubility” (water (aqueous, simulated gastric fluid), at pH 2, read-out: solubility) is over 1 mg/mL. For the same molecule, testing at 0.5 µM in data set [2] (Bos taurus, Chondrocyte, at 0.5 μM) gave an inhibition of 50%. Besides, in data set [2], the “effect on IL-1β-stimulated NO production (in words)” value is listed as “significantly inhibited”. The “cytotoxicity to chondrocytes, LDH (in words)” value (shortened to “cytotoxicity to chondrocytes”) in the data set with chondrocytes (setting [4]) is listed as “little cytoxicity”.

Regarding `CO[C@H]1C[C@@H]2CC[C@@H](C)[C@@](O)(O2)C(=O)C(=O)N2CCCC[C@H]2C(=O)O[C@H]([C@H](C)C[C@@H]2CC[C@@H](O)[C@H](OC)C2)CC(=O)[C@H](C)/C=C(\C)[C@@H](O)[C@@H](OC)C(=O)[C@H](C)C[C@H](C)/C=C/C=C/C=C/1C` [Rapamycin, reference compound], the “cytotoxicity, LDH (in words)” value in data set [3] is reported as “little cytotoxicity”. In addition, testing at 10 µM in data set [2] (Bos taurus, Chondrocyte) gave an inhibition of 30%. The “cytotoxicity to chondrocytes” value in the data set on chondrocytes was “little toxicity”.

As a reminder, the EC50 is the concentration giving half of the maximal effect. In the case of `C[C@@H]1CN(Cc2ccc(F)cc2)[C@@H](C)CN1C(=O)c1cc2c(C(=O)C(=O)N(C)C)cn(C)c2cc1Cl` [SCIO-469 (SD 469)], the EC50 in data set [1] (Homo sapiens, 10× diluted, read-out: inhibits TNFα h-WBA (EC50)) came to 1600 nM; in data set [1] (Homo sapiens, Table 2, read-out: TNFα Inhibition h-WBA (EC50)) it was 1600 nM. The IC50 in data set [2] (setting [5]) was determined as 18 nM; in data set [2] (Bos taurus, Chondrocyte, Table 3B, unit inferred, read-out: NO Inhibition, Pellet Assay, IC50), 107 nM; in data set [2] (setting [6]), 18 nM. Besides, the “increase of LDH level” value in the data set with chondrocytes (bovine, 100000 nM) is reported as 121%.

For `COc1ccc(-n2nc(CCC(=O)N(C)O)cc2-c2ccc(Cl)cc2)cc1` [Tepoxalin, reference compound], in data set [2] (Bos taurus, Chondrocyte), 10 µM produced 50% inhibition.

`Cc1ccc(C(=O)c2ccc(CC(=O)O)n2C)cc1` [Tolmetin, reference compound]: in data set [2] (Table 3B), the “NO Inhibition, Pellet Assay (in words)” value is “No effect”.

For `CC(=O)Oc1cccc2c1C(=O)c1c(OC(C)=O)cc(C(=O)O)cc1C2=O` [Diacerein, reference compound], in data set [3], the “cytotoxicity, LDH (in words)” value was “tolerant”. Also, the “NO production (in words)” value in data set [2] (diacerein at 5.4 μM, rhein at 0.35 μM, 10 ng/ml IL-1β, five days) is reported as “significantly inhibited”. The “cytotoxicity to chondrocytes” value in the data set with chondrocytes is listed as “cytotoxicity at higher concentrations”.

On to `C[C@@H]1CN(Cc2ccc(F)cc2)[C@@H](C)CN1C(=O)c1cc2cc(C(=O)C(=O)N(C)C)[nH]c2cc1Cl` [SCIO-282 (SD 282)], for which the “water solubility (in words)” value in the data set “Water solubility” is reported as “limited water solubility”. Moreover, the EC50 in data set [1] (10× diluted, read-out: inhibits TNFα h-WBA (EC50)) was found to be 70 nM. In data set [2] (setting [6]), the IC50 is 74 nM and 74.4 nM. Moreover, the “effect on IL-1β-stimulated NO production (in words)” value in data set [2] is “inhibited”. In the data set with chondrocytes (setting [4]), the “cytotoxicity to chondrocytes” value is on record as “little cytoxicity”.

In the case of `CC(C(=O)O)c1ccc(C(=O)c2cccs2)cc1` (stereo not shown) [Suprofen, reference compound], in data set [2] (Bos taurus, Chondrocyte), testing at 10 µM gave an inhibition of 20%.

As for `OCCC#Cc1nc(-c2ccc(F)cc2)c(-c2ccncc2)n1CCCc1ccccc1` [JNJ 3026582 (RWJ 67657), 4-[4-(4-fluorophenyl)-1-(3-phenylpropyl)-5-(4-pyridinyl)-1H-imidazol-2-yl]-3-butyn-1-ol], the IC50 is over 10000 nM on COX2; 20 nM at p38α MAP kinase (h-p38α); 119 nM in data set [2] (setting [5]); 119 nM in data set [2] (Bos taurus, Chondrocyte, Table 3B, read-out: NO Inhibition, Pellet Assay, IC50); over 10000 nM on COX1. The “pH at which soluble” value in the data set “Water solubility” is under 2. In addition, the “water solubility (in words)” value in the data set “Water solubility” is given as “poor water solubility”. Also, the “solubility in 0.1 M HCl (in words)” value in “Water solubility” (0.1 M HCl) is on record as “soluble in 0.1 M HCl”. Moreover, in data set [2], the “effect on IL-1β-stimulated NO production (in words)” value is “inhibited”. Moreover, the “cytotoxicity to chondrocytes” value in the data set on chondrocytes (setting [4]) is reported as “little cytoxicity”.

Turning to `CC(=O)N1CCN(c2c(-c3ccncc3)c(-c3ccc(F)cc3)c(C#N)n2C)CC1` [JNJ 17089540 (RWJ 669307)], the IC50 was over 10000 nM at COX2; 2000 nM at p38α MAP kinase (h-p38α); 4900 nM in data set [2] (Table 3B, read-out: NO Inhibition, Pellet Assay, IC50); 4920 nM in data set [2] (setting [6]); over 10000 nM at COX1. Moreover, in “Water solubility” (of HCl salt), the water solubility was over 100 mg/mL. In data set [2], the “effect on IL-1β-stimulated NO production (in words)” value is on record as “weaker inhibitor”. Besides, the “cytotoxicity to chondrocytes” value in the data set with chondrocytes is listed as “little cytoxicity”.

For the molecule `O=C(O)c1cc(O)c2c(c1)C(=O)c1cccc(O)c1C2=O` [Rhein, reference compound], the “cytotoxicity, LDH (in words)” value in data set [3] is reported as “tolerant”. The “cytotoxicity to chondrocytes” value in the data set on chondrocytes is recorded as “higher toxicity”.
